# Laboratory results taken from ChEMBL document CHEMBL1201862, “PubChem BioAssay data set” (2004).
#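 Cells were grown in 96-well plates and exposed to each compound for 48 hours at five concentrations; endpoints were interpolated linearly between bracketing concentrations, or set to the highest concentration if not reached. Here, GI50 denotes the concentration required for 50% inhibition of growth.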 Calls of active or inactive are those of the source. Rule as the data show it: active = GI50 up to about 1.1 µM and inactive = higher.
# Legend:
# Test in all cases: NCI anticancer screen, dose series, 48 h
# PC-3 = test system: PC-3
# KM12 = test system: KM12
# SK-MEL-2 = test system: SK-MEL-2
# A498 = test system: A498
# DU-145 = test system: DU-145
# Hs-578T = test system: Hs-578T
# SF-295 = test system: SF-295
# UO-31 = test system: UO-31
# SK-MEL-28 = test system: SK-MEL-28
# CAKI-1 = test system: CAKI-1
# SK-OV-3 = test system: SK-OV-3
# SNB-19 = test system: SNB-19
# OVCAR-4 = test system: OVCAR-4
# T47D = test system: T47D
# NCI-H23 = test system: NCI-H23
# MCF7 = test system: MCF7
# U-251 = test system: U-251
# RPMI-8226 = test system: RPMI-8226
# K562 = test system: K562
# TK-10 = test system: TK-10
SMILES,GI50 (PC-3),GI50 (KM12),GI50 (SK-MEL-2),GI50 (A498),GI50 (DU-145),GI50 (Hs-578T),GI50 (SF-295),GI50 (UO-31),GI50 (SK-MEL-28),GI50 (CAKI-1),GI50 (SK-OV-3),GI50 (SNB-19),GI50 (OVCAR-4),GI50 (T47D),GI50 (NCI-H23),GI50 (MCF7),GI50 (U-251),GI50 (RPMI-8226),GI50 (K562),GI50 (TK-10)
O=c1c2cc(I)ccc2nc(Sc2ccc([N+](=O)[O-])cc2[N+](=O)[O-])n1Cc1ccccc1,2.89 µM (inactive),3.32 µM (inactive),1.85 µM (inactive),7.03 µM (inactive),2.96 µM (inactive),4.78 µM (inactive),5.92 µM (inactive),2.26 µM (inactive),7.14 µM (inactive),2.64 µM (inactive),8.13 µM (inactive),6.65 µM (inactive),2.49 µM (inactive),1.71 µM (inactive),3.02 µM (inactive),2.02 µM (inactive),3.81 µM (inactive),1.74 µM (inactive),1.78 µM (inactive),7.59 µM (inactive)
Cc1ccc2c(n1)C(=O)c1cc(C)c(C)cc1C2=O,> 100 µM (inactive),53.2 µM (inactive),> 100 µM (inactive),> 100 µM (inactive),> 100 µM (inactive),44.2 µM (inactive),> 100 µM (inactive),57.8 µM (inactive),> 100 µM (inactive),> 100 µM (inactive),> 100 µM (inactive),> 100 µM (inactive),70.3 µM (inactive),49.5 µM (inactive),> 100 µM (inactive),67 µM (inactive),27.4 µM (inactive),> 100 µM (inactive),68.7 µM (inactive),> 100 µM (inactive)
COc1cc(/C=N/c2ccc(S(N)(=O)=O)cc2)cc(OC)c1,> 50 µM (inactive),30.1 µM (inactive),> 50 µM (inactive),> 50 µM (inactive),> 50 µM (inactive),> 50 µM (inactive),> 50 µM (inactive),> 50 µM (inactive),> 50 µM (inactive),> 50 µM (inactive),> 50 µM (inactive),> 50 µM (inactive),> 50 µM (inactive),> 50 µM (inactive),> 50 µM (inactive),22.3 µM (inactive),> 50 µM (inactive),28 µM (inactive),42.1 µM (inactive),> 50 µM (inactive)
CCN(CC)CCNC(=O)c1ccc(I)cc1,> 100 µM (inactive),> 100 µM (inactive),> 100 µM (inactive),44.3 µM (inactive),> 100 µM (inactive),> 100 µM (inactive),> 100 µM (inactive),> 100 µM (inactive),> 100 µM (inactive),60.4 µM (inactive),> 100 µM (inactive),> 100 µM (inactive),> 100 µM (inactive),64.4 µM (inactive),> 100 µM (inactive),> 100 µM (inactive),> 100 µM (inactive),> 100 µM (inactive),> 100 µM (inactive),> 100 µM (inactive)
Nc1ccc(S(=O)(=O)c2ccc(/N=[N+](\[O-])c3ccc(S(=O)(=O)c4ccc(N)cc4)cc3)cc2)cc1,> 55.3 µM (inactive),> 100 µM (inactive),> 49.1 µM (inactive),30.8 µM (inactive),81.7 µM (inactive),8.39 µM (inactive),22.1 µM (inactive),> 100 µM (inactive),> 80.4 µM (inactive),86.9 µM (inactive),24.9 µM (inactive),44.4 µM (inactive),19.4 µM (inactive),> 48 µM (inactive),34.8 µM (inactive),> 64.6 µM (inactive),27.7 µM (inactive),> 100 µM (inactive),> 100 µM (inactive),> 44.1 µM (inactive)
C[C@H]1CC(=O)[C@@]2(O)C#C/C=C\C#C[C@@H]3Nc4c(cc(O)c5c4C(=O)c4ccccc4C5=O)[C@]24O[C@]314,0.259 µM (active),0.0927 µM (active),0.478 µM (active),0.0586 µM (active),0.00189 µM (active),0.811 µM (active),0.0161 µM (active),< 0.001 µM (active),0.0338 µM (active),< 0.001 µM (active),0.0171 µM (active),0.0199 µM (active),0.271 µM (active),0.0305 µM (active),0.00461 µM (active),< 0.001 µM (active),0.00701 µM (active),0.00356 µM (active),0.0118 µM (active),0.0574 µM (active)
COC(=O)C1=C2Nc3ccccc3C23CCN2C(O)C4(CC5CC67CCOC6CCN6CCC8(c9cccc(OC)c9N(C4)C58O)C67)C4OCCC4(C1)C23 (stereo not given),34.8 µM (inactive),78.9 µM (inactive),84.1 µM (inactive),64.3 µM (inactive),36.3 µM (inactive),22.5 µM (inactive),34.6 µM (inactive),> 100 µM (inactive),97.5 µM (inactive),25.2 µM (inactive),68.5 µM (inactive),45.7 µM (inactive),61.9 µM (inactive),20.3 µM (inactive),> 100 µM (inactive),47.2 µM (inactive),35.6 µM (inactive),> 100 µM (inactive),> 100 µM (inactive),> 100 µM (inactive)
COc1ccc(Nc2n[nH]c(NS(=O)(=O)c3cc(C)c(Cl)cc3S)n2)cc1,> 100 µM (inactive),> 100 µM (inactive),> 100 µM (inactive),> 100 µM (inactive),> 100 µM (inactive),> 100 µM (inactive),> 100 µM (inactive),> 100 µM (inactive),> 100 µM (inactive),> 100 µM (inactive),> 100 µM (inactive),> 100 µM (inactive),> 100 µM (inactive),> 100 µM (inactive),> 100 µM (inactive),> 100 µM (inactive),> 100 µM (inactive),> 100 µM (inactive),> 100 µM (inactive),> 100 µM (inactive)
O=C(/C=C/c1ccc(-c2ccccc2[N+](=O)[O-])o1)NCc1ccc(C(=O)NCCc2ccccc2)cc1,> 100 µM (inactive),> 100 µM (inactive),21.2 µM (inactive),29.3 µM (inactive),> 100 µM (inactive),> 100 µM (inactive),> 100 µM (inactive),> 100 µM (inactive),> 100 µM (inactive),> 100 µM (inactive),> 100 µM (inactive),> 100 µM (inactive),> 100 µM (inactive),> 100 µM (inactive),> 100 µM (inactive),> 100 µM (inactive),> 100 µM (inactive),> 100 µM (inactive),> 100 µM (inactive),> 100 µM (inactive)
Cc1nn(-c2ccccc2)c(C)c1/C=N/NC(=O)c1sc(=S)n(-c2ccc(Cl)cc2)c1N,4.07 µM (inactive),8.3 µM (inactive),17.3 µM (inactive),6.18 µM (inactive),> 100 µM (inactive),2.4 µM (inactive),2.71 µM (inactive),4.33 µM (inactive),5.4 µM (inactive),2.76 µM (inactive),3.87 µM (inactive),> 100 µM (inactive),3.94 µM (inactive),16.5 µM (inactive),18.9 µM (inactive),18 µM (inactive),6 µM (inactive),2.67 µM (inactive),3.52 µM (inactive),1.87 µM (inactive)
